Drawing on patent US20260092074A1, “Annelated Pyridines as Steroidogenesis Inhibitors, Preparation Method and Use Thereof” (Guangzhou Vinnocent Pharmaceutical Limited, priority 2022, published 2026), this text covers IC50 for 26 molecules.

Test [1] addresses T1, human CYP11B2 (Homo sapiens, UniProt P19099).
T1 construct: expressed in transfected cells
T1 sequence (P19099 25-503): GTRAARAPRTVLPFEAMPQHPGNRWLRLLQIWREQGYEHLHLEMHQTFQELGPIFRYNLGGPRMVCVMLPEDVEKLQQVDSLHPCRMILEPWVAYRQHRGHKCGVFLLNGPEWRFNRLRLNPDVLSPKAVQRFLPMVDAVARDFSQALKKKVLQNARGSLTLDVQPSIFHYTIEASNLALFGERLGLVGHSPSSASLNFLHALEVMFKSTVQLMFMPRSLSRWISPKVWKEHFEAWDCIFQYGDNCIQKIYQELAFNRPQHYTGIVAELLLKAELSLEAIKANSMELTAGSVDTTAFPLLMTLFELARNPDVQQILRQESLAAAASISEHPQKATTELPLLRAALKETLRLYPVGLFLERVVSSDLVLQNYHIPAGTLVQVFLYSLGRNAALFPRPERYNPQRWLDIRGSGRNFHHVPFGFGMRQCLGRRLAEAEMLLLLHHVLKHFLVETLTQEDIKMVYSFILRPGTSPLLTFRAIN
Put plainly: Inhibition of hCYP11B2 in transfected V79 cells. Type of test: cell-based. Particulars: hamster V79 cells expressing human CYP11B2; substrate 11-deoxycorticosterone 200 nM. Put shortly: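 Hamster V79 cells stably co-expressing human CYP11B2 and rat NADPH-P450 reductase were pre-incubated with compounds for 2 hours, then given 200 nM 11-deoxycorticosterone for 30 minutes before ethyl acetate quench. Substrate and product were quantified by LC-MS/MS or HPLC at 260 nm, and IC50 was derived from percent inhibition.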

Test [2] addresses T2, human CYP11B1 (Homo sapiens, UniProt P15538).
T2 construct: expressed in transfected cells
T2 sequence (P15538 25-503): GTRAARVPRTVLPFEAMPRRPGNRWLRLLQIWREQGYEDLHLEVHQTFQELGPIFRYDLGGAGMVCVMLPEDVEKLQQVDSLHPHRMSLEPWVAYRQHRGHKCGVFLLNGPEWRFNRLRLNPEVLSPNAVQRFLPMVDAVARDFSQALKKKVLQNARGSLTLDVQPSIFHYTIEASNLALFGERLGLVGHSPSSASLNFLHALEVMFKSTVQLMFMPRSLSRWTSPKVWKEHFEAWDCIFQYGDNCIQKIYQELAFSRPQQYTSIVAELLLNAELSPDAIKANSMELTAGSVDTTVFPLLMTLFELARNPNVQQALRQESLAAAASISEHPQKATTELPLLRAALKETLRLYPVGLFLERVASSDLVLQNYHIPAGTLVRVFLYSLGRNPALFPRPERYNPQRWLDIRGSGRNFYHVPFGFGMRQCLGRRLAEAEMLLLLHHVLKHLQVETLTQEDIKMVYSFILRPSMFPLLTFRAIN
Put plainly: Inhibition of hCYP11B1 in transfected V79 cells. The format is cell-based. The note with it: hamster V79 cells expressing human CYP11B1; substrate 11-deoxycortisol 200 nM. An outline of the steps:
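V79 hamster cells stably expressing human CYP11B1 and rat NADPH-P450 reductase were preincubated with compounds for 2 h. 11-Deoxycortisol (200 nM) was then added as substrate for 30 min before ethyl acetate quench. Substrate and product were quantified by LC-MS/MS or HPLC at 260 nm, and IC50 was derived from percent inhibition.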

The IC50 is the concentration that gives 50% inhibition. As to `N#Cc1ccc(-c2cncc3c2OCCN3S(=O)(=O)C2CN(c3cccc(F)c3)C2)cc1` [O126, 4-(4-((1-(3-Fluorophenyl)azetidin-3-yl)sulfonyl)-3,4-dihydro-2H-pyrido[4,3-b][1,4]oxazin-8-yl)benzonitrile], the IC50 was determined as 3 nM in test [1] and 126 nM in test [2].
For the molecule `N#Cc1ccc(-c2cncc3c2OCCN3S(=O)(=O)C2CN(c3ccc(F)cc3)C2)cc1` [O127, 4-(4-((1-(4-Fluorophenyl)azetidin-3-yl)sulfonyl)-3,4-dihydro-2H-pyrido[4,3-b][1,4]oxazin-8-yl)benzonitrile], the IC50 is 2.3 nM in test [1] and 197 nM in test [2].
For the molecule `N#Cc1ccc(S(=O)(=O)N2CCOc3c(-c4cc5cc(Cl)ccc5o4)cncc32)cc1` [O128, 4-((8-(5-Chlorobenzofuran-2-yl)-2,3-dihydro-4H-pyrido[4,3-b][1,4]oxazin-4-yl)sulfonyl)benzonitrile], the results for the half-maximal inhibitory concentration (IC50) in test [1] and in test [2] were 3.3 nM and 256 nM, respectively.
`N#Cc1ccc(S(=O)(=O)N2CCOc3c(-c4cc5cc(C#N)ccc5o4)cncc32)cc1` [O129, 2-(4-((4-Cyanophenyl)sulfonyl)-3,4-dihydro-2H-pyrido[4,3-b][1,4]oxazin-8-yl)benzofuran-5-carbonitril]: the half-maximal inhibitory concentration (IC50) in test [1] is 1.9 nM; in test [2], 243 nM.
For `N#Cc1ccc(-c2cncc3c2OCCN3S(=O)(=O)c2ccc(C#N)cc2)cc1` [O130, 4-((8-(4-Cyanophenyl)-2,3-dihydro-4H-pyrido[4,3-b][1,4]oxazin-4-yl)sulfonyl)benzonitrile], the IC50 was found to be 5 nM in test [1] and 97 nM in test [2].
On to `N#Cc1ccc(S(=O)(=O)N2CCOc3c(-c4ccc5ncoc5c4)cncc32)cc1` [O131, 4-((8-(Benzo[d]oxazol-6-yl)-2,3-dihydro-4H-pyrido[4,3-b][1,4]oxazin-4-yl)sulfonyl)benzonitrile], for which the results for the IC50 in test [1] and in test [2] were 3.3 nM and 248 nM, respectively.
For the molecule `N#Cc1ccc(S(=O)(=O)N2CCOc3c(-c4ccc5c(c4)NC(=O)C5)cncc32)cc1` [O132, 4-((8-(2-Oxoindolin-6-yl)-2,3-dihydro-4H-pyrido[4,3-b][1,4]oxazin-4-yl)sulfonyl)benzonitrile], the IC50 in test [1] is 5.4 nM; in test [2] it was 168 nM.
Take `N#CC12CC(c3cncc4c3OCCN4C(=O)C3CN(Cc4cccc(F)c4)C3)(C1)C2` [O133, 3-(4-(1-(3-Fluorobenzyl)azetidine-3-carbonyl)-3,4-dihydro-2H-pyrido[4,3-b][1,4]oxazin-8-yl)bicyclo[1.1.1]pentane-1-carbonitrile]: the IC50 in test [1] came to 55 nM; in test [2], 4220 nM.
As to `N#CN1CC2(C1)CN(c1cncc3c1OCCN3C(=O)C1CN(Cc3cccc(F)c3)C1)C2` [O134, 6-(4-(1-(3-Fluorobenzyl)azetidine-3-carbonyl)-3,4-dihydro-2H-pyrido[4,3-b][1,4]oxazin-8-yl)-2,6-diazaspiro[3.3]heptane-2-carbonitrile], the half-maximal inhibitory concentration (IC50) in test [1] turned out to be 52 nM; in test [2] it was 3580 nM.
For `O=C(C1CN(Cc2cccc(F)c2)C1)N1CCOc2c(N3CCn4cnnc4C3)cncc21` [O135, (8-(5,6-Dihydro-[1,2,4]triazolo[4,3-a]pyrazin-7 (8H)-yl)-2,3-dihydro-4H-pyrido[4,3-b][1,4]oxazin-4-yl)(1-(3-fluorobenzyl)azetidin-3-yl)methanone], in that order: 66 nM and 4130 nM.
As to `N#Cc1ccc(-c2cncc3c2OCCN3C(=O)N2CC(Cc3cccc(F)c3)C2)cc1` [O136, 4-(4-(3-(3-Fluorobenzyl)azetidine-1-carbonyl)-3,4-dihydro-2H-pyrido[4,3-b][1,4]oxazin-8-yl)benzonitrile], the IC50 in test [1] was found to be 22 nM; in test [2], 2020 nM.
With `O=C(C1CN(Cc2cccc(F)c2)C1)N1CCOc2c(N3CCn4ccnc4C3)cncc21` [O137, (8-(5,6-Dihydroimidazo[1,2-a]pyrazin-7 (8H)-yl)-2,3-dihydro-4H-pyrido[4,3-b][1,4]oxazin-4-yl)(1-(3-fluorobenzyl)azetidin-3-yl)methanone], the IC50 in test [1] is 57 nM; in test [2] it was 3960 nM.
With `N#Cc1ccc(-c2cncc3c2SCCN3Cc2cccc(F)c2)cc1` [S1, 4-(4-(3-Fluorobenzyl)-3,4-dihydro-2H-pyrido[4,3-b][1,4]thiazin-8-yl)benzonitrile], the IC50 in test [1] was 451 nM; in test [2] it was above 5000 nM.
Turning to `N#Cc1ccc(-c2cncc3c2SCCN3Cc2ccc(F)cc2)cc1` [S2, 4-(4-(4-Fluorobenzyl)-3,4-dihydro-2H-pyrido[4,3-b][1,4]thiazin-8-yl)benzonitrile], the concentration for half-maximal inhibition (IC50) in test [1] was 473 nM; in test [2] it was above 5000 nM.
With `N#Cc1ccc(-c2cncc3c2SCCN3Cc2cccc([N+](=O)[O-])c2)cc1` [S3, 4-(4-(3-Nitrobenzyl)-3,4-dihydro-2H-pyrido[4,3-b][1,4]thiazin-8-yl)benzonitrile], the IC50 was 243 nM in test [1] and above 5000 nM in test [2].
With `N#Cc1ccc(-c2cncc3c2SCCN3C(=O)c2cccc(F)c2)cc1` [S4, 4-(4-(3-Fluorobenzoyl)-3,4-dihydro-2H-pyrido[4,3-b][1,4]thiazin-8-yl)benzonitrile], the values for the IC50 in test [1] and in test [2] were 34.8 nM and 1370 nM, respectively.
For `N#Cc1ccc(-c2cncc3c2SCCN3C(=O)c2ccc(F)cc2)cc1` [S5, 4-(4-(4-Fluorobenzoyl)-3,4-dihydro-2H-pyrido[4,3-b][1,4]thiazin-8-yl)benzonitrile], in that order: 21 nM and 2980 nM.
Regarding `COc1ccc(C(=O)N2CCSc3c(-c4ccc(C#N)cc4)cncc32)cc1` [S6, 4-(4-(4-Methoxybenzoyl)-3,4-dihydro-2H-pyrido[4,3-b][1,4]thiazin-8-yl)benzonitrile], the IC50 in test [1] was determined as 53 nM; in test [2], 1740 nM.
Regarding `N#Cc1ccc(-c2cncc3c2SCCN3C(=O)c2cccnc2)cc1` [S7, 4-(4-Nicotinoyl-3,4-dihydro-2H-pyrido[4,3-b][1,4]thiazin-8-yl)benzonitrile], the results for the IC50 in test [1] and in test [2] were 88 nM and 4390 nM, respectively.
In the same order, the values of `N#Cc1ccc(-c2cncc3c2SCCN3S(=O)(=O)c2ccccc2)cc1` [S8, 4-(4-(Phenylsulfonyl)-3,4-dihydro-2H-pyrido[4,3-b][1,4]thiazin-8-yl)benzonitrile] are 0.1 nM and 1.5 nM.
For `N#Cc1ccc(-c2cncc3c2SCCN3S(=O)(=O)c2cccc(F)c2)cc1` [S9, 4-(4-((3-Fluorophenyl)sulfonyl)-3,4-dihydro-2H-pyrido[4,3-b][1,4]thiazin-8-yl)benzonitrile], in that order: 0.2 nM and 0.7 nM.
For the molecule `N#Cc1ccc(-c2cncc3c2SCCN3S(=O)(=O)c2ccc(F)cc2)cc1` [S10, 4-(4-((4-Fluorophenyl)sulfonyl)-3,4-dihydro-2H-pyrido[4,3-b][1,4]thiazin-8-yl)benzonitrile], the IC50 was determined as 0.1 nM in test [1] and 0.8 nM in test [2].
Consider `Cc1cccc(S(=O)(=O)N2CCSc3c(-c4ccc(C#N)cc4)cncc32)c1` [S11, 4-(4-(m-Tolylsulfonyl)-3,4-dihydro-2H-pyrido[4,3-b][1,4]thiazin-8-yl)benzonitrile], for which the IC50 in test [1] is 0.15 nM; in test [2], 2.1 nM.
As for `Cc1ccc(S(=O)(=O)N2CCSc3c(-c4ccc(C#N)cc4)cncc32)cc1` [S12, 4-(4-Tosyl-3,4-dihydro-2H-pyrido[4,3-b][1,4]thiazin-8-yl)benzonitrile], the IC50 in test [1] came out at 0.18 nM; in test [2], 2.8 nM.
Regarding `COc1ccc(S(=O)(=O)N2CCSc3c(-c4ccc(C#N)cc4)cncc32)cc1` [S13, 4-(4-((4-Methoxyphenyl)sulfonyl)-3,4-dihydro-2H-pyrido[4,3-b][1,4]thiazin-8-yl)benzonitrile], the IC50 in test [1] came out at 0.1 nM; in test [2] it was 1.2 nM.
As to `N#Cc1ccc(-c2cncc3c2SCCN3S(=O)(=O)c2cccc(Cl)c2)cc1` [S14, 4-(4-((3-Chlorophenyl)sulfonyl)-3,4-dihydro-2H-pyrido[4,3-b][1,4]thiazin-8-yl)benzonitrile], the IC50 is 0.25 nM in test [1] and 4.8 nM in test [2].
